Test results taken from US7201928B1, “Extracts of orange peel for prevention and treatment of cancer” (Rutgers, The State University of New Jersey, priority 1999, dated 2007).
Where two headings read alike, the source gives them in different places.

What was measured:
W138 (normal) cells = assay: cell proliferation assay and morphology, normal cells; format: cell-based, human; conditions: for neutral β-galactosidase activity (staining), senescence marker: W138 cells; for effect on normal cell growth: crystal violet, 0, 1, 5, 10, 20 or 50 μg/ml
Protocol: (§1) In addition to testing for the activity of the complete orange peel extract, two of the identified extract components, tangeretin and nobeletin, were tested for their combined activity in a cell proliferation assay. The growth of W138 (normal) and W138VA (transformed) cells was tested in the presence of a mixture of tangeretin and nobeletin. The dye crystal violet was used for measuring growth of the cells. Cells were treated with either tangeretin alone (0, 1, 5, 10, 20 or 50 μg/ml), nobeletin alone (0, 1, 5, 10, 20 or 50 μg/ml) or a mixture of the two compounds at a total concentration of the two flavenoids of 0, 1, 5, 10, 20 or 50 μg/ml. […] The range of doses of the extract tested was 0, 1, 5, 10, 20 and 50 μg/ml.
(§2) W138 human diploid fibroblasts and cancerous SV40-transformed W138 cells (W138VA) were used in a cell proliferation assay. Growth rate and viability of these cells was determined following addition of resveratrol or one of its analogs. Doses tested ranged from 50 ng to 300 μg per ml or 1 μM to 100 μM concentrations in culture media. […] MR-1 was not active as an inhibitor of cell growth even at doses as high as 100 μM.
Treatment of W138 and W138VA cells with resveratrol and its analogs also led to morphological changes in the cells. Treatment of W138 cells with resveratrol and its analogs R-1 and R-3 led to elongation of normal W138 cells. Methoxy analogs such as MR-0 and MR-3 caused the flattening of W138 cells. This flattening was accompanied by an increase in neutral β-galactosidase activity as indicated by an increase in staining.

W138 and W138VA cells = assay: cell proliferation assay, cell line not specified for the result; format: cell-based, human
Protocol: as §1, §2

184-B5/HER cells = assay: preclinical cell culture model for human ductal breast carcinoma in situ; format: cell-based; conditions: for cell cycle analysis: relative to solvent-treated control cultures
Protocol: Experiments were also performed in a preclinical cell culture model for human ductal breast carcinoma in situ (DCIS). The human breast-derived preneoplastic cell line 184-B5/HER expressed HER-2/neu, p53 and EGFR but not ER, therefore resembling the clinical DCIS. Initial dose-response experiments compared the growth inhibitory effect of orange peel extract on the parental 184-B5 cells and the HER-2/neu oncogene-expressing 184-B5/HER cells. […] Orange peel extract at the maximum cytostatic dose of 100 ppm accumulated the cells in the G0/G1 phase and inhibited the S+G2/M phase of the cell cycle, leading to down-regulation of cell cycle progression. […] Treatment of 184-B5/HER cells with 100 ppm orange peel extract induced a 7.6-fold increase in sub G0/G1 (apoptotic) population. Consistent with the induction of apoptosis, immunoreactivity to anti-apoptotic Bcl-2 was decreased by 33%.
Resveratrol and its analogs were also tested in preneoplastic 184-B5/HER human mammary epithelial cells.

[1] = system: W138VA (transformed) cells; assay: cell proliferation assay, transformed cells; format: cell-based, human; conditions: for inhibition of cell growth in transformed cells: crystal violet, 0, 1, 5, 10, 20 or 50 μg/ml
Protocol: as §1, §2

[2] = system: oncogene-expressing, preneoplastic breast epithelial cells; assay: orthotransplant model, palpable tumor formation at transplant sites; conditions: AIN-76A diet supplemented with 400 ppm
Excerpt: Mice were transplanted with oncogene-expressing, preneoplastic breast epithelial cells. Mice were then divided into groups with the control group fed AIN-76A diet alone. Another group of mice was fed AIN-76A diet supplemented with MR-3 (400 ppm).

[3] = system: AOM-induced aberrant crypt foci (ACF); assay: AOM-induced formation of aberrant crypt foci (colon cancer model); format: in vivo, Female CF-1 mice; conditions: 0.2% in diet
Protocol: The orange peel extract was then tested in an in vivo model for colon cancer. Female CF-1 mice were injected with azoxymethane (AOM) once a week for four weeks at increasing doses (5, 10, 10 and 10 mg/kg). Orange peel extract was administered in the diet (0.2%) starting two weeks before the first AOM injection, during and continuing until the end of the experiment at 24 weeks. At week 24, the mice were given one last dose of AOM (10 mg/kg). The mice were then sacrificed and their colons removed (from anus to caecum). The colons were opened longitudinally, rinsed with normal saline, and stapled to a plastic sheet. The colon samples were placed in a 10% neutral buffered formalin solution for 24 hours. The entire colon was stained with 0.2% methylene blue dissolved in phosphate buffered saline for 20 minutes. The whole mount of colon samples were then examined using light microscopy for the presence of aberrant crypt (AC) or aberrant crypt foci (ACF). Both ACF and AC are biomarkers for colon cancer. […] Mice fed nordihydroxyguaiaretic acid (NDGA) in the diet (0.2%) were used as controls.

AOM-induced colon tumors = assay: AOM-induced colon tumorigenesis; conditions: 0.2% in AIN 76A diet + AOM
Protocol: In a similar experiment in the mouse colon cancer model, CF-1 mice were injected with AOM (5, 10, 10 and 10 mg/kg) starting at 6 weeks of age, once each week and then once at 37 weeks after the first dose of AOM. Throughout the treatment period, mice received either an AIN 76A diet or test compound in AIN 76A diet at 2 weeks before the first dose of AOM and continuing until the end of the experiment. The test compounds were NDGA (0.2%) and orange peel extract (0.2%). Colon samples were again obtained at sacrifice, stored in 10% formalin phosphate buffer, and then colon tumor number was determined.

[4] = read-out: concentration that inhibited growth by 50% (IC50), 184-B5/HER human mammary epithelial cells

How did the “morphological changes of W138 cells” value (W138 (normal) cells) turn out when COc1ccc(C=Cc2cc(OC)cc(OC)c2)cc1 [MR-0, 3, 4′,5-trimethoxystilbene] was run?
Its value is “flattening”.

And the “neutral β-galactosidase activity (staining), senescence marker” value (W138 (normal) cells)?
The value was “increase”.

What about the “inhibition of cell growth” value (W138 and W138VA cells; tested 1 μM to 100 μM) of the same compound?
The value was “inhibited cell growth”.

What about the IC50 (184-B5/HER cells; [4]) of the same compound?
The IC50 was 10.5 µM.

What about the cell cycle analysis (184-B5/HER cells) of the same compound?
The cell cycle analysis was “progressive arrest of cells in the G2/M phase”.

COc1cc(C=Cc2ccccc2)cc(OC)c1 [MR-1, 3,5-dimethoxystilbene] was tested. Which “activity as inhibitor of cell growth” value (W138 and W138VA cells; doses as high as 100 μM) did it give?
Its value is “not active”.

Which results are given for COc1cc(C=Cc2ccc(OC)c(OC)c2)cc(OC)c1 [MR-2, 3,3′,4,5′-tetramethoxystilbene]?
IC50 (184-B5/HER cells; [4]): 120 µM; cell cycle analysis (184-B5/HER cells): progressive arrest of cells in the G2/M phase

Which results are given for COc1ccc(C=Cc2cc(OC)c(OC)c(OC)c2)cc1 [MR-3, 3,4,4′,5-tetramethoxystilbene]?
proliferation of W138VA cells ([1]; 1 μM): completely blocked proliferation; morphological changes of W138 cells (W138 (normal) cells): flattening; growth of W138 cells (W138 (normal) cells; 1 μM): no effect; neutral β-galactosidase activity (staining), senescence marker (W138 (normal) cells): increase; toxicity (weight gains comparable) ([2]; 12 weeks): little toxicity; tumor incidence ([2]; 12 weeks of continuous feeding): 20%; IC50 (184-B5/HER cells; Homo sapiens, 184B5, read-out: concentration that inhibited growth by 50% (IC50)): 1 µM; cell cycle analysis (184-B5/HER cells): progressive arrest of cells in the G2/M phase

With COc1cc(C=Cc2cc(OC)cc(OC)c2)cc(OC)c1 [MR-4, 3,3′,5′5′-tetramethoxystilbene] as the compound, how does the “growth of W138 cells” value (W138 (normal) cells; 100 μM) read?
Its value is “inhibited growth”.

How did the AC/ACF ([3]; 24 weeks) turn out when CC(Cc1ccc(O)c(O)c1)C(C)Cc1ccc(O)c(O)c1 (stereo not shown) [NDGA, nordihydroxyguaiaretic acid] was run?
Its AC/ACF is 3.5.

And the AC/colon ([3]; 24 weeks)?
The AC/colon was 9.4 ± 2.2.

And the ACF/colon ([3]; 24 weeks)?
Its ACF/colon is 2.7 ± 0.9.

And the “ACF: 1 AC/colon” value ([3]; 24 weeks)?
Its value is 6.8 ± 1.5.

What about the “ACF: 2 AC/colon” value ([3]; 24 weeks) of the same compound?
The value was 1.0 ± 0.3.

What about the “ACF: 3 AC/colon” value ([3]; 24 weeks) of the same compound?
Its value is 0.2 ± 0.2.

And the “ACF: 4 AC/colon” value ([3]; 24 weeks)?
The value was 0.

What about the “ACF: 5 AC/colon” value ([3]; 24 weeks) of the same compound?
The value was 0.

And the “ACF: 6 AC/colon” value ([3]; 24 weeks)?
The value was 0.

What about the “ACF: 7 AC/colon” value ([3]; 24 weeks) of the same compound?
The value was 0.

And the “inhibition of the number of ACF per colon” value ([3]; vs positive control)?
The value was 48%.

What about the “inhibition of the ratio of AC/ACF” value ([3]; vs positive control) of the same compound?
The value was 51%.

What about the “Colon Tumors Per Mouse” value (AOM-induced colon tumors) of the same compound?
The value was 0.27 ± 0.14.

What about the “Percent Incidence” value (AOM-induced colon tumors) of the same compound?
The value was 27%.

Which “morphological changes of W138 cells” value (W138 (normal) cells) does the source give for Oc1cc(O)cc(C=Cc2ccccc2)c1 [R-1, 3,5-dihydroxystilbene] here?
Its value is “elongation”.

How did the “morphological changes of W138 cells” value (W138 (normal) cells) turn out when Oc1ccc(C=Cc2cc(O)c(O)c(O)c2)cc1 [R-3, 3,4,4′,5-tetrahydroxystilbene] was run?
Its value is “elongation”.

What about the “inhibition of cell growth” value (W138 and W138VA cells; tested 1 μM to 100 μM) of the same compound?
The value was “inhibited cell growth”.

Which results are given for COc1ccc(-c2cc(=O)c3c(OC)c(OC)c(OC)c(OC)c3o2)cc1OC [nobeletin, 5,6,7,8,3′,4′-hexamethoxyflavone]?
inhibition of cell growth in transformed cells [1]: only marginal effects; effect on normal cell growth (W138 (normal) cells): no effect

With Oc1ccc(C=Cc2cc(O)cc(O)c2)cc1 [resveratrol, reference compound] as the compound, how does the “morphological changes of W138 cells” value (W138 (normal) cells) read?
Its value is “elongation”.

What about the “concentration inhibiting cell growth” value (W138 and W138VA cells; tested 1 μM to 100 μM) of the same compound?
Its value is “less than 10 μM”.

What does the source list for COc1ccc(-c2cc(=O)c3c(OC)c(OC)c(OC)c(OC)c3o2)cc1 [tangeretin, 5,6,7,8,4′-pentamethoxyflavone]?
inhibition of cell growth in transformed cells [1]: only marginal effects; effect on normal cell growth (W138 (normal) cells): no effect
